Reference: US20250353835A1, “N-TETRAZOLYL ARYL UREA-BASED DERIVATIVES, PREPARATION METHOD THEREFOR, AND USE THEREOF” (Hangzhou Yirui Pharmaceutical Technology Co., Ltd, priority 2022, published 2025)

Target: T1, human B1R (Homo sapiens, UniProt P46663)
T1 construct: host or cells: HEK293
T1 sequence (P46663 1-353): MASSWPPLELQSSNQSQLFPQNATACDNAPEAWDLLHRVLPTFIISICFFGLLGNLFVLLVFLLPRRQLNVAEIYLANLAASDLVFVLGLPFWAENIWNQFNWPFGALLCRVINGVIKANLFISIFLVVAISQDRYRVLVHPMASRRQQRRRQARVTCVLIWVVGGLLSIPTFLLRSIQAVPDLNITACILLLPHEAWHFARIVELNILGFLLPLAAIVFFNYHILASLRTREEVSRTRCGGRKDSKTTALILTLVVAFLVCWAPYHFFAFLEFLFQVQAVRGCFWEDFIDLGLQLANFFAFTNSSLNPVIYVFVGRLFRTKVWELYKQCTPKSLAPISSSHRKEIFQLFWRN
Assay: FLIPR calcium ion flux assay, inhibitory activity against human B1R
Assay type: cell-based
Conditions: HEK293 cells stably expressing human B1R; agonist [Lys-des-Arg9]-Bradykinin 4.6 nM (EC80); FLIPR method
Method: The inhibitory activity of the compounds against human B1R and B2R channels was determined by calcium ion flux assay using fluorometric imaging plate reader (FLIPR method). See literatures of Lee, Chen et al. for the method. [Lee et al. 2008][Chen et al. 2011]
1. Cell culture: HEK293 recombinant cell lines (WuXi AppTec, Shanghai, China) stably expressing human B1R and B2R were cultured in DMEM (Invitrogen, Cat #11965) medium containing 10% calf serum (Excellbio, Cat #FSP500), 5 μg/ml Geneticin (Invitrogen, Cat #10131) and Penicillin/Streptomycin (Invitrogen, Cat #15140). The incubator conditions were 37° C. and ambient humidity containing 5% CO2.
2. Preparation of the cell assay plate: B1R and B2R cells were seeded in a 384-well assay plate (Greiner, Cat #781090) at a density of 20,000 cells per well (20 μl/well), and cultured overnight at 37° C. in an incubator with 5% CO2. The next day, Fluo-4 Direct™ Loading Buffer (containing 5 mM Probenicid) containing 2× (8 μM) Fluo-4 Direct (Invitrogen, Cat #F10471) was added to each of the wells. The cells were cultured at 37° C. for 50 min, and then culture for at the room temperature 10 min.
3. Preparation of the compound assay plate: The compound was dissolved in 100% DMSO to make a 30 mM stock solution and stored at −20° C. On the day of use, the stock solution of the compound was thawed at the room temperature. Each of the compounds was serially diluted at 1:5 in DMSO culture medium with a starting concentration of 30 μM for 9 concentration points on a 384-well plate. Each of compounds was diluted in duplicate for testing. [Des-Arg10]-HOE140 was used as a positive control compound, and diluted in the same manner with a starting concentration of 3 μM.
4. FLIPR assay: The cell assay plate was placed in a FLIPR instrument ([…]). The compounds in the compound assay plate were added to the corresponding wells on the cell assay plate (10 μL/well) using an automatic program. The calcium ion fluorescence signal was recorded to determine whether the compound may have agonist activity. After 10 minutes, a B1R agonist [Lys-des-Arg9]-Bradykinin2 (10 μL/well) with a final concentration of 4.6 nM (EC80) was added to each of the wells to stimulate the generation of intracellular calcium ion flux signals. The Ca^++-dependent fluorescence signal was continuously monitored at a wavelength of 538 nm to analyze the inhibitory activity of the compound.
5. Data analysis: The data was collected and analyzed by a FLIPR program. The inhibitory (or agonist) activity of the compound at each concentration was evaluated by the fluorescence peak. The IC50 values of the compounds were calculated using EXCEL and PRISM programs.

Row | Structure (SMILES) | IC50
1 | CCOc1ccc(-c2ncc(NC(=O)N3CCC(C(C)(C)C)CC3)cc2-c2nn[nH]n2)cn1 [Compound 7, 4-(tert-butyl)-N-(6′-ethoxy-3-(2H-tetrazol-5-yl)-[2,3′-bipyridyl]-5-yl)piperidine-1-carboxamide] | 0.0578 µM
2 | COc1ccc(Oc2ccc(NC(=O)N[C@H]3CC[C@@H](C)CC3)cc2-c2nn[nH]n2)cc1OC [Compound 63, 1-(4-(3,4-dimethoxyphenoxy)-3-(2H-tetrazol-5-yl)phenyl)-3-((cis)-4-methylcyclohexyl)urea] | 7.71 µM
3 | COc1ccc(-c2ccc(NC(=O)N3CCC4CCOC4C3)cc2-c2nn[nH]n2)cc1OC (centres unmarked) [Compound 4, N-(3′,4′-dimethoxy-2-(2H-tetrazol-5-yl)-[1,1′-biphenyl]-4-yl)hexahydrofuro[2,3-c]pyridine-6(2H)-carboxamide] | 5.32 µM
4 | Cc1ccc(NC(=O)c2c(F)cc(NC(=O)N3CCC(C(C)(C)C)CC3)cc2-c2nn[nH]n2)nc1 [Compound 54, 4-(tert-butyl)-N-(3-fluoro-4-((5-methylpyridin-2-yl)aminoformyl)-5-(2H-tetrazol-5-yl)phenyl)piperidine-1-carboxamide] | 0.0679 µM
5 | CC(C)(C)C1CCN(C(=O)Nc2ccc(C3CCOCC3)c(-c3nn[nH]n3)c2)CC1 [Compound 40, 4-(tert-butyl)-N-(4-(tetrahydro-2H-pyran-4-yl)-3-(2H-tetrazol-5-yl)phenyl)piperidine-1-carboxamide] | 2.04 µM
6 | COc1ccc(-c2ccc(NC(=O)N[C@H]3CC[C@@H](C)CC3)cc2-c2nn[nH]n2)cc1OC [Compound 61, 1-(3′,4′-dimethoxy-2-(2H-tetrazol-5-yl)-[1,1′-biphenyl]-4-yl)-3-(4-methylcyclohexyl)urea] | 0.0922 µM
7 | CC(C)(C)C1CCN(C(=O)Nc2cc(F)c(C(=O)NC3CCCC3)c(-c3nn[nH]n3)c2)CC1 [Compound 53, 4-(tert-butyl)-N-(4-(cyclopentylaminoformyl)-3-fluoro-5-(2H-tetrazol-5-yl)phenyl)piperidine-1-carboxamide] | 0.0481 µM
8 | COc1ccc(-c2ccc(NC(=O)N3CCC4(CCCO4)CC3)cc2-c2nn[nH]n2)cc1OC [Compound 3, N-(3′,4′-dimethoxy-2-(2H-tetrazol-5-yl)-[1,1′-biphenyl]-4-yl)-1-oxy-8-azaspiro[4.5]decane-1-carboxamide] | 1.33 µM
9 | CC(C)(C)C1CCN(C(=O)Nc2ccc(C(=O)OC3CCOC3)c(-c3nn[nH]n3)c2)CC1 (centres unmarked) [Compound 44, tetrahydrofuran-3-yl 4-(4-(tert-butyl)piperidine-1-formamido)-2-(2H-tetrazol-5-yl)benzoate] | 0.106 µM
10 | CC(C)(C)C1CCN(C(=O)Nc2ccc(-c3ccc4c(c3)OCO4)c(-c3nn[nH]n3)c2)CC1 [Compound 39, N-(4-(benzo[d][1,3]dioxolan-5-yl)-3-(2H-tetrazol-5-yl)phenyl)-4-(tert-butyl)piperidine-1-carboxamide] | 0.0824 µM
11 | CC(C)(C)C1CCN(C(=O)Nc2ccc(C3C=COCC3)c(-c3nn[nH]n3)c2)CC1 (centres unmarked) [Compound 41, 4-(tert-butyl)-N-(4-(3,4-dihydro-2H-pyran-4-yl)-3-(2H-tetrazol-5-yl)phenyl)piperidine-1-carboxamide] | 0.448 µM

Molecules with a lower IC50, results first:

Row | IC50 | Structure (SMILES)
12 | 0.0214 µM | Cn1ncc2cc(-c3c(F)cc(NC(=O)N4CCC(C(F)(F)F)CC4)cc3-c3nn[nH]n3)ccc21 [Compound 34, N-(3-fluoro-4-(1-methyl-1H-indazol-5-yl)-5-(2H-tetrazol-5-yl)phenyl)-4-(trifluoromethyl)piperidine-1-carboxamide]
13 | 0.0096 µM | CC(C)Oc1ccc(-c2ccc(NC(=O)N3CCC(C(C)(C)C)CC3)cc2-c2nn[nH]n2)cn1 [Compound 49, 4-(tert-butyl)-N-(4-(6-isopropoxypyrid-3-yl)-3-(2H-tetrazol-5-yl)phenyl)piperidine-1-carboxamide]
14 | 0.0257 µM | Cn1ncc2cc(-c3ccc(NC(=O)N4CCC(C(F)(F)F)CC4)cc3-c3nn[nH]n3)ccc21 [Compound 27, N-(4-(1-methyl-1H-indazol-5-yl)-3-(2H-tetrazol-5-yl)phenyl)-4-(trifluoromethyl)piperidine-1-carboxamide]
15 | 0.0086 µM | CC(C)(C)c1cn(-c2ccc(NC(=O)N3CCC(C(C)(C)C)CC3)cc2-c2nn[nH]n2)cn1 [Compound 58, 4-(tert-butyl)-N-(4-(4-(tert-butyl)-1H-imidazol-1-yl)-3-(2H-tetrazol-5-yl)phenyl)piperidine-1-carboxamide]
16 | 0.0398 µM | CC(C)(C)C1CCN(C(=O)Nc2ccc(C(=O)OC3CCCCC3)c(-c3nn[nH]n3)c2)CC1 [Compound 15, cyclohexyl 4-(4-(tert-butyl)piperidine-1-formamido)-2-(2H-tetrazol-5-yl)benzoate]
17 | 0.0089 µM | Cc1ccc(-c2c(F)cc(NC(=O)N3CCC(C(C)(C)C)CC3)cc2-c2nn[nH]n2)cn1 [Compound 55, 4-(tert-butyl)-N-(3-fluoro-4-(6-methylpyrid-3-yl)-5-(2H-tetrazol-5-yl)phenyl)piperidine-1-carboxamide]
18 | 0.0142 µM | Cn1ncc2cc(-c3c(F)cc(NC(=O)N4CCC(C(C)(C)C)CC4)cc3-c3nn[nH]n3)ccc21 [Compound 32, 4-(tert-butyl)-N-(3-fluoro-4-(1-methyl-1H-indazol-5-yl)-5-(2H-tetrazol-5-yl)phenyl)piperidine-1-carboxamide]
19 | 0.0346 µM | O=C(OC1CCCCC1)c1c(F)cc(NC(=O)N2CCC(C(F)(F)F)CC2)cc1-c1nn[nH]n1 [Compound 29, cyclohexyl 2-fluoro-6-(2H-tetrazol-5-yl)-4-(4-(trifluoromethyl)piperidine-1-formamido)benzoate]
20 | 0.04 µM | COc1ccc(-c2ccc(NC(=O)N3CCC(C(C)(C)C)CC3)cc2-c2nn[nH]n2)cc1OC [Compound 1, 4-(tert-butyl)-N-(3′,4′-dimethoxy-2-(2H-tetrazol-5-yl)-[1,1′-biphenyl]-4-yl)piperidine-1-carboxamide]
21 | 0.0235 µM | COc1ccc(-c2ccc(NC(=O)N3CCC(C(C)(C)C)CC3)cc2-c2nn[nH]n2)cc1Cl [Compound 14, 4-(tert-butyl)-N-(3′-chloro-4′-methoxy-2-(2H-tetrazol-5-yl)-[1,1′-biphenyl]-4-yl)piperidine-1-carboxamide]
22 | 0.0178 µM | Cc1ccc(-c2ccc(NC(=O)N3CCC(C(C)(C)C)CC3)cc2-c2nn[nH]n2)cn1 [Compound 51, 4-(tert-butyl)-N-(4-(6-methylpyrid-3-yl)-3-(2H-tetrazol-5-yl)phenyl)piperidine-1-carboxamide]
23 | 0.0076 µM | CC(C)Oc1ccc(-c2c(F)cc(NC(=O)N3CCC(C(C)(C)C)CC3)cc2-c2nn[nH]n2)cn1 [Compound 56, 4-(tert-butyl)-N-(3-fluoro-4-(6-isopropoxypyrid-3-yl)-5-(2H-tetrazol-5-yl)phenyl)piperidine-1-carboxamide]
24 | 0.0323 µM | COc1ccc(-c2c(F)cc(NC(=O)N3CCC(C)CC3)cc2-c2nn[nH]n2)cc1OC [Compound 20, N-(2-fluoro-3′,4′-dimethoxy-6-(2H-tetrazol-5-yl)-[1,1′-biphenyl]-4-yl)-4-methyl piperidine-1-carboxamide]
25 | 0.0245 µM | COc1ccc(-c2ccc(NC(=O)N3CCC(C(F)(F)F)CC3)cc2-c2nn[nH]n2)cc1Cl [Compound 28, N-(3′-chloro-4′-methoxy-2-(2H-tetrazol-5-yl)-[1,1′-biphenyl]-4-yl)-4-(trifluoromethyl)piperidine-1-carboxamide]
26 | 0.0446 µM | CC1CCN(C(=O)Nc2cc(F)c(C(=O)OC3CCCCC3)c(-c3nn[nH]n3)c2)CC1 [Compound 23, cyclohexyl 2-fluoro-4-(4-methylpiperidine-1-formamido)-6-(2H-tetrazol-5-yl)benzoate]
